We go through 14 compounds from patent US8632767B2, “3-[1-(3-haloalkyl)triazolyl]phenyl sulphide derivatives as acaricides and insecticides” (Bayer Intellectual Property GmbH, priority 2009, dated 2014).

As usually defined, the chromatographic logP is a lipophilicity value derived from retention on a column. Low readings indicate lower lipophilicity, high ones higher lipophilicity.

Molecules are shown by their SMILES.

A short description of series [1]: log P by HPLC on reversed-phase C18, LC-MS, pH 2.7, formic acid (HCOOH). Format: physicochemical. As to conditions: reversed-phase C18 HPLC column; HPLC C18, pH 2.7, 0.1% aqueous formic acid/acetonitrile. The protocol:
(§1) The log P values reported in the table above and in the preparation examples were determined in accordance with EEC Directive 79/831 Annex V.A8 by HPLC (High Performance Liquid Chromatography) on reversed-phase columns (C18), with the following methods: ^[b] The determination is made by LC-MS in the acid range at pH 2.7 with 0.1% aqueous formic acid and acetonitrile (containing 0.1% formic acid) as eluents; linear gradient from 10% acetonitrile to 95% acetonitrile. Calibration took place with unbranched alkan-2-ones (having 3 to 16 carbon atoms) of known log P values (log P values determined from the retention times by linear interpolation between two successive alkanones).

The nature of series [2]: log P by HPLC on reversed-phase C18, pH 2.3, phosphoric acid (H3PO4). It counts as physicochemical. As to conditions: reversed-phase C18 HPLC column; HPLC C18, pH 2.3, 0.1% aqueous phosphoric acid/acetonitrile. How it is done: as §1, with “^[a]” for “^[b]”, “made” for “made by LC-MS”, “2.3” for “2.7”, “phosphoric” for “formic”, “acetonitrile” for “acetonitrile (containing 0.1% formic acid)”

Series [3] concerns Boophilus microplus. In words: Boophilus microplus test (BOOPMI injection). It counts as in vivo. As to conditions: Rhipicephalus microplus, 168 h; 20 μg/animal, injection into abdomen, after 7 days; read-out: activity (no fertile eggs laid). How it is done: Solvent: Dimethyl Sulphoxide An appropriate preparation of active compound is prepared by mixing 10 mg of active compound with 0.5 ml of solvent and diluting the concentrate with solvent to the desired concentration. The solution of active compound is injected into the abdomen (Boophilus microplus) and the animals are transferred into dishes and kept in a controlled atmosphere. The activity is assessed on the basis of deposition of fertile eggs. After 7 days, the effect in % is determined. Here, 100% means that none of the ticks has laid fertile eggs.

Series [4] deals with greenhouse red spidermite (Tetranychus urticae). In words: Tetranychus test; OP resistant (TETRUR spray treatment), Example 3. It counts as in vivo. As to conditions: foliar, 144 h, spray on bean leaf discs, after 6 days, read-out: effect (mites killed). How it is done:
(§2) Solvents: 78.0 parts by weight of acetone • • 1.5 parts by weight of dimethylformamide Emulsifier: 0.5 part by weight of alkylaryl polyglycol ether An appropriate preparation of active compound is prepared by mixing 1 part by weight of active compound with the stated amounts of solvent and emulsifier and diluting the concentrate with emulsifier-containing water to the desired concentration. Leaf discs of bean (Phaseolus vulgaris) infested by all stages of the greenhouse red spidermite (Tetranychus urticae) are sprayed with a preparation of active compound at the desired concentration. After 6 days, the effect in % is determined. Here, 100% means that all of the mites have been killed; 0% means that no mites have been killed.

Series [5] relates to Meloidogyne incognita. In words: Meloidogyne incognita test (MELGIN). It counts as in vivo. As to conditions: 20 ppm, lettuce in sand, after 14 days. How it is done: Solvents: 78.0 parts by weight of acetone • • 1.5 parts by weight of dimethylformamide Emulsifier: 0.5 part by weight of alkylaryl polyglycol ether An appropriate preparation of active compound is prepared by mixing 1 part by weight of active compound with the stated amounts of solvent and emulsifier and diluting the concentrate with water to the desired concentration. Pots are filled with sand, solution of active compound, meloidogyne incognita egg/larvae suspension, and lettuce seeds. The lettuce seeds germinate and the plants develop. On the roots, the galls develop. After 14 days, the nematicidal effect is determined from the gall formation, in %. Here, 100% means that no galls were found; 0% means that the number of galls on the treated plants corresponds to that for the untreated control.

Series [6] deals with greenhouse red spidermite (Tetranychus urticae). Nature of the series: Tetranychus test; OP resistant (TETRUR spray treatment), Example 5, comparison with prior art. As to conditions: 20 g/ha, 6d. Format: in vivo. The protocol:
as §2, with “the desired time,” for “6 days,”

Series [7] has as its system larvae of the mustard beetle (Phaedon cochleariae). In words: Phaedon test (PHAECO spray treatment). It counts as in vivo. As to conditions: foliar, 168 h, spray on Chinese cabbage leaf discs, after 7 days, read-out: effect (beetle larvae killed). The protocol: Solvents: 78.0 parts by weight of acetone • • 1.5 parts by weight of dimethylformamide Emulsifier: 0.5 part by weight of alkylaryl polyglycol ether An appropriate preparation of active compound is prepared by mixing 1 part by weight of active compound with the stated amounts of solvent and emulsifier and diluting the concentrate with emulsifier-containing water to the desired concentration. Leaf discs of Chinese cabbage (Brassica pekinensis) are sprayed with a preparation of active compound at the desired concentration and, after they have dried, are populated with larvae of the mustard beetle (Phaedon cochleariae). After 7 days, the effect in % is determined. Here, 100% means that all of the beetle larvae have been killed; 0% means that no beetle larvae have been killed.

A short description of series [8]: log P by HPLC on reversed-phase C18, eluent variant not stated. As to conditions: reversed-phase C18 HPLC column. Format: physicochemical. How it is done:
The log P values reported in the table above and in the preparation examples were determined in accordance with EEC Directive 79/831 Annex V.A8 by HPLC (High Performance Liquid Chromatography) on reversed-phase columns (C18), with the following methods: Calibration took place with unbranched alkan-2-ones (having 3 to 16 carbon atoms) of known log P values (log P values determined from the retention times by linear interpolation between two successive alkanones).

As to `Cc1cc(C)c(-n2cnc(C(F)F)n2)cc1SCC(F)F` [I-A-1], the chromatographic logP in series [1] was determined as 3.02; in series [2], 3.06. In series [3], the pest or weed control at 0.02 mg stood at 100%. Further, in series [4], the pest or weed control at 100 g/ha was determined as 100%.
On to `Cc1cc(C)c(-n2cnc(C(F)F)n2)cc1SCC(F)(F)F` [I-A-2, 3-(Difluoromethyl)-1-{2,4-dimethyl-5-[(2,2,2-trifluoroethyl)sulphanyl]phenyl}-1H-1,2,4-triazole], for which, in series [1], the chromatographic logP worked out at 3.33. For the same compound, the pest or weed control at 0.02 mg in series [3] is 100%. The pest or weed control at 500 g/ha in series [4] stood at 100%. Moreover, the “nematicidal effect (gall formation)” value in series [5] is on record as 100%. Moreover, the “% effect after application” value in series [6] is given as 100 6d %.
As for `Cc1cc(C)c([S+]([O-])CC(F)(F)F)cc1-n1cnc(C(F)F)n1` (stereo not shown) [I-A-4, 3-(Difluoromethyl)-1-{2,4-dimethyl-5-[(2,2,2-trifluoroethyl)sulphinyl]phenyl}-1H-1,2,4-triazole], the chromatographic logP in series [1] turned out to be 2.19. Besides, the pest or weed control at 0.02 mg in series [3] is 100%. The pest or weed control at 100 g/ha in series [4] was 100%. Moreover, in series [5], the “nematicidal effect (gall formation)” value is 100%.
In series [1], `Cc1ccc(-n2cnc(C(F)F)n2)cc1SCC(F)(F)F` [I-A-5] registered a chromatographic logP of 3.24. For the same compound, the pest or weed control at 0.02 mg in series [3] was 100%. In addition, the pest or weed control at 500 g/ha in series [7] was determined as 100%. In addition, the pest or weed control at 100 g/ha in series [4] is 100%.
In the case of `FC(F)c1ncn(-c2ccc(Cl)c(SCC(F)(F)F)c2)n1` [I-A-9], in series [1], the chromatographic logP stood at 3.28. Also, in series [3], the pest or weed control at 0.02 mg was found to be 100%. Also, in series [7], the pest or weed control at 500 g/ha was 100%. In addition, the pest or weed control at 100 g/ha in series [4] was 100%. The “nematicidal effect (gall formation)” value in series [5] amounted to 100%.
As to `Cc1cc(C)c([S+]([O-])CC(F)(F)F)cc1-n1cnc(C(F)(F)C(F)(F)F)n1` (stereo not shown) [I-A-10], the chromatographic logP in series [1] came to 3.27. The pest or weed control at 0.02 mg in series [3] amounted to 100%. Further, the pest or weed control at 500 g/ha in series [7] and in series [4] was 100% throughout.
Consider `Cc1cc(C)c([S+]([O-])CC(F)F)cc1-n1cnc(C(F)(F)C(F)(F)Cl)n1` (stereo not shown) [I-A-12], for which the chromatographic logP in series [1] came to 3.02. In addition, the pest or weed control at 0.02 mg in series [3] is 100%. The pest or weed control at 500 g/ha in series [7] is 100%. Also, in series [4], the pest or weed control at 100 g/ha came out at 100%.
Regarding `Cc1cc(F)c(-n2cnc(C(F)F)n2)cc1[S+]([O-])CC(F)(F)F` (stereo not shown) [I-A-15], the chromatographic logP in series [1] amounted to 2.12. The pest or weed control at 500 g/ha in series [7] and in series [4] was 100% in each case. Further, the “nematicidal effect (gall formation)” value in series [5] is reported as 90%.
With `Cc1ccc(-n2cnc(C(F)F)n2)cc1[S+]([O-])CC(F)(F)F` (stereo not shown) [I-A-16], the chromatographic logP in series [1] came out at 2.1. Besides, the pest or weed control at 500 g/ha in series [7] worked out at 100%. In addition, the pest or weed control at 100 g/ha in series [4] was 100%. Further, the “nematicidal effect (gall formation)” value in series [5] stood at 100%.
`[O-][S+](CC(F)(F)F)c1cc(-n2cnc(C(F)F)n2)ccc1Cl` (stereo not shown) [I-A-27]: the chromatographic logP in series [1] came out at 2.39. For the same compound, the pest or weed control at 0.02 mg in series [3] was found to be 100%. In series [7], the pest or weed control at 500 g/ha was determined as 100%. Also, the pest or weed control at 100 g/ha in series [4] is 100%. The “nematicidal effect (gall formation)” value in series [5] was 100%.
In series [1], `Cc1cc(F)c(-n2cnc(C(F)F)n2)cc1SCC(F)(F)F` [I-A-30] gave a chromatographic logP of 3.28. Moreover, the pest or weed control at 500 g/ha in series [7] was determined as 100%. The pest or weed control at 100 g/ha in series [4] was 100%. Besides, in series [5], the “nematicidal effect (gall formation)” value was 90%.
The compound `Cc1cc(F)c(-n2cnc(C(F)F)n2)cc1SCC1CC1` [I-A-31] had a chromatographic logP in series [1] of 3.81. Besides, the pest or weed control at 500 g/ha in series [7] turned out to be 100%. Moreover, the pest or weed control at 100 g/ha in series [4] came to 100%.
In series [8], `Cc1ccc(NNC(=O)C(F)F)c(C)c1` [N′-(2,4-Dimethylphenyl)-2,2-difluoroacetohydrazide] registered a chromatographic logP of 1.8.
Consider `Cc1cc(C)c(-n2cnc(C(F)(F)F)n2)cc1SCC(F)(F)F` [VI-297, reference compound], for which the “% effect after application” value in series [6] was 70 6d %.
